Patent publication US8669271B2 (Boehringer Ingelheim International GmbH, priority 2010, dated 2014)

biological target: T1, human GPR119 (Homo sapiens, UniProt Q8TDV5); assay: AlphaScreen cAMP assay in Min-6/hGPR119 cells (activation of GPR119, intracellular cAMP); type: cell-based; settings: MIN6 cells stably transfected with human GPR119; cAMP by AlphaScreen after 45 minutes incubation at room temperature
T1 construct: expression vector for human GPR119 cDNA (Acc. No. NP_848566); expressed in transfected cells
T1 sequence (Q8TDV5 1-335): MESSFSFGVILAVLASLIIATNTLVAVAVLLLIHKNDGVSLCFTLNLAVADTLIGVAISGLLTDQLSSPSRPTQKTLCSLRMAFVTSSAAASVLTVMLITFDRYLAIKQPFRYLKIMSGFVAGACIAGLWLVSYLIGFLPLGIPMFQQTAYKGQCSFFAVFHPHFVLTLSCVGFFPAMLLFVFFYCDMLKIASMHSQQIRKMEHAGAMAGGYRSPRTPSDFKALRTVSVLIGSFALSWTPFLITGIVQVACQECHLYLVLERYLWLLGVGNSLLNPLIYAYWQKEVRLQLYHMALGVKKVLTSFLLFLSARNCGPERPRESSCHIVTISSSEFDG
Description: The compounds of formula I according to the invention modulate the activity of the G-protein-coupled receptor GPR119. The effect of the compounds on the activation of GPR119 and on the stimulation of intracellular cAMP concentration is determined using the AlphaScreen cAMP Assay Kit (Cat.No.#6760625R) made by PerkinElmer.
MIN6 cells [Miyazaki J et al. Endocrinology. 1990 July; 127(1):126-32] are stably transfected with an expression vector for human GPR119 cDNA (Acc. No. NP_848566). Min-6/hGPR119 cells are cultured in DMEM, 10% FBS, 50 μM β-mercaptoethanol, 0.3 mg/mL Geniticin, 2 mM GlutaMAX at 37° C. 5% CO2. For the assay, the cells are seeded in Optiplates (white, 384-well, 160W— barcoded, TC, sterile with lid, Cat.No.#6007688 (Perkin Elmer); 10000 cells/well; 50 μl). The plates covered with lids are then incubated for 24 hours at 37° C./5% CO2. After the medium is aspirated from the wells completely, 10 μl of the test compound are added, the compounds are diluted using stimulating buffer (140 mM NaCl, 3.6 mM KCl, 0.5 mM NaH2PO4, 0.5 mM MgSO4, 1.5 mM CaCl2, 10 mM Hepes, 5 mM NaHCO3; pH 7.4. 0.5 mM IBMX and 0.1% BSA, the final DMSO concentration is 1%). After 45 minutes incubation at room temperature (approx. 20° C.), the cAMP concentrations are determined using the AlphaScreen cAMP Assay Kit (Cat.No.#6760625R from PerkinElmer).

Compound | EC50 [nM]
CC(C)OC(=O)N1CCC(C2Cc3cc(-c4ccc(S(C)(=O)=O)nc4)ccc3O2)CC1 (centres unmarked) [Example 2, 4-[5-(6-Methanesulfonyl-pyridin-3-yl)-2,3-dihydro-benzofuran-2-yl]-piperidine-1-carboxylic acid isopropyl ester] | 71
CC(C)OC(=O)N1CCC(C2Cc3cc(-c4ccc(C#N)cc4)ccc3O2)CC1 (centres unmarked) [Example 4, 4-[5-(4-Cyano-phenyl)-2,3-dihydro-benzofuran-2-yl]-piperidine-1-carboxylic acid isopropyl ester] | 198
Cc1cc(C#N)cnc1-c1ccc2c(c1)CC(C1CCN(C(=O)OC(C)C)CC1)O2 (centres unmarked) [Example 8, 4-[5-(5-Cyano-3-methyl-pyridin-2-yl)-2,3-dihydro-benzofuran-2-yl]-piperidine-1-carboxylic acid isopropyl ester] | 228
Cc1cc(-c2ccc3c(c2)CC(C2CCN(C(=O)OC(C)C)CC2)O3)cnc1C#N (centres unmarked) [Example 9, 4-[5-(6-Cyano-5-methyl-pyridin-3-yl)-2,3-dihydro-benzofuran-2-yl]-piperidine-1-carboxylic acid isopropyl ester] | 432
Cc1cc(S(C)(=O)=O)ccc1-c1ccc2c(c1)CC(C1CCN(C(=O)OC(C)C)CC1)O2 (centres unmarked) [Example 10, 4-[5-(4-Methanesulfonyl-2-methyl-phenyl)-2,3-dihydro-benzofuran-2-yl]-piperidine-1-carboxylic acid isopropyl ester] | 121
Cc1cc([S+](C)[O-])ccc1-c1ccc2c(c1)CC(C1CCN(C(=O)OC(C)C)CC1)O2 (centres unmarked) [Example 11, 4-[5-(4-Methanesulfinyl-2-methyl-phenyl)-2,3-dihydro-benzofuran-2-yl]-piperidine-1-carboxylic acid isopropyl ester] | 299
CC(C)(C)OC(=O)N1CCC(C2Cc3nc(-c4ccc(S(C)(=O)=O)cc4)cnc3O2)CC1 (centres unmarked) [Example 12, 4-[2-(4-Methanesulfonyl-phenyl)-6,7-dihydro-furo[2,3-b]byrazin-6-yl]-piperidine-1-carboxylic acid tert-butyl ester] | 253
CC(C)(C)OC(=O)N1CCC(C2Cc3nc(-c4ccc(S(C)(=O)=O)cc4)ccc3O2)CC1 (centres unmarked) [Example 13, 4-[5-(4-Methanesulfonyl-phenyl)-2,3-dihydro-furo[3,2-b]pyridin-2-yl]-piperidine-1-carboxylic acid tert-butyl ester] | 214

Stronger by EC50, values ahead:

EC50 [nM] | Compound
55 | CC(C)(C)OC(=O)N1CCC(C2Cc3cc(-c4ccc(CS(C)(=O)=O)cc4F)ncc3O2)CC1 (single isomer, unassigned) [Example 76]
39 | CC(C)OC(=O)N1CCC(C2Cc3cc(-c4ccc(S(C)(=O)=O)cn4)ccc3O2)CC1 (centres unmarked) [Example 3, 4-[5-(5-Methanesulfonyl-pyridin-2-yl)-2,3-dihydro-benzofuran-2-yl]-piperidine-1-carboxylic acid isopropyl ester]
32 | CC(C)OC(=O)N1CCC(C2Cc3cc(-c4ccc(S(C)(=O)=O)cc4)ccc3O2)CC1 (centres unmarked) [Example 1, 4-[5-(4-Methanesulfonyl-phenyl)-2,3-dihydro-benzofuran-2-yl]-piperidine-1-carboxylic acid isopropyl ester]
18 | CS(=O)(=O)c1ccc(-c2ccc3c(c2)CC(C2CCN(C(=O)OC4CCC4)CC2)O3)cc1 (centres unmarked) [Example 5, 4-[5-(4-Methanesulfonyl-phenyl)-2,3-dihydro-benzofuran-2-yl]-piperidine-1-carboxylic acid cyclobutyl ester]
14 | CC(C)(C)OC(=O)N1CCC(C2Cc3cc(-c4ccc(CS(C)(=O)=O)cc4F)ncc3O2)CC1 (single isomer, unassigned) [Example 75]
13 | CC(C)(C)OC(=O)N1CCC(C2Cc3cc(-c4ccc(S(C)(=O)=O)cn4)ccc3O2)CC1 (centres unmarked) [Example 14, 4-[5-(5-Methanesulfonyl-pyridin-2-yl)-2,3-dihydro-benzofuran-2-yl]-piperidine-1-carboxylic acid tert-butyl ester]
